PMC8501799, “Constitutive signal bias mediated by the human GHRHR splice variant 1” (Proceedings of the National Academy of Sciences of the …, 2021)

Experiments:
SV1 V65A = assay: cAMP accumulation; assay type: cell-based, human; details: Table S4, mean ± SEM
Experimental: (§1) GHRH-stimulated cAMP accumulation was measured by a LANCE Ultra cAMP kit (PerkinElmer). Briefly, HEK293T cells (24 h after transfection with SV1 or GHRHR) or prostate cancer cells were digested by 0.2% (wt/vol) EDTA and washed once with Dulbecco’s phosphate-buffered saline (PBS). Cells were then resuspended with stimulation buffer (Hanks’ balanced salt solution [HBSS] supplemented with 5 mM HEPES, 0.5 mM IBMX, and 0.1% [wt/vol] bovine serum albumin [BSA], pH 7.4) to a density of 0.6 million cells per milliliter and added to 384-well white plates (3,000 cells per well). […] The reaction was stopped by adding 5 μL Eu-cAMP tracer and 5 μL ULight-anti-cAMP. After 1 h RT incubation, TR-FRET signals (excitation: 320 nm, emission: 615 and 665 nm) were measured by an Envision plate reader (PerkinElmer). cAMP concentrations were interpolated by a standard curve.
(§2) All functional study data were analyzed using Prism 7 (GraphPad) and presented as means ± SEM from at least three independent experiments. Concentration-response curves were evaluated with a three-parameter logistic equation. The significance was determined with either two-tailed Student’s t test or one-way ANOVA, and P < 0.05 is considered statistically significant.
(§3) Table S4. Effects of residue mutation in the ligand-binding pocket of SV1 on GHRH-induced cAMP […]
(§4) Mutant pEC50 Emax Cell surface expression ΔLog (τ/KA)
(§5) (% WT GHRHR) (% WT GHRHR) cAMP accumulation data were analyzed using a three-parameter logistic equation to determine pEC50 and Emax values. pEC50 is the negative logarithm of the molar concentration of agonist that induced half the maximal response. Emax for mutants is expressed as a percentage of the WT GHRHR. Data were analyzed by nonlinear regression using the operational model equation to determine t he logR values (logτ/KA, i.e., logarithm of the transduction ratio). τ is the effi cacy value of the agonist and was corrected by cell surface expression of the receptor. KA is dissociation constant. Changes in transduction ratio (ΔlogR) were calculated to determine the relative effectiveness of the mutants. All values are means ± S.E.M. of four independent experiments (n = 4) conducted in quadruplicate. Statistical analysis was carried out by comparing the control responses in the WT-SV1. *, P < 0.05, **, P < 0.01 and ***, P < 0.001, determined by one-way

SV1 Y69A = assay: cAMP accumulation; assay type: cell-based, human; details: Table S4, mean ± SEM
Experimental: as §1, §2, §3, §4, §5

SV1 L294A = assay: cAMP accumulation; assay type: cell-based, human; details: Table S4, mean ± SEM
Experimental: as §1, §2, §3, §4, §5

SV1 I225A = assay: cAMP accumulation; assay type: cell-based, human; details: Table S4, mean ± SEM
Experimental: as §1, §2, §3, §4, §5

SV1 F62A = assay: cAMP accumulation; assay type: cell-based, human; details: Table S4, mean ± SEM
Experimental: as §1, §2, §3, §4, §5

SV1 S145A = assay: cAMP accumulation; assay type: cell-based, human; details: Table S4, mean ± SEM
Experimental: as §1, §2, §3, §4, §5

SV1 H146A = assay: cAMP accumulation; assay type: cell-based, human; details: Table S4, mean ± SEM
Experimental: as §1, §2, §3, §4, §5

SV1 K118A = assay: cAMP accumulation; assay type: cell-based, human; details: Table S4, mean ± SEM
Experimental: as §1, §2, §3, §4, §5

SV1 K66A = assay: cAMP accumulation; assay type: cell-based, human; details: Table S4, mean ± SEM
Experimental: as §1, §2, §3, §4, §5

GHRHR Δ32 = target: T1, GHRHR Δ32 (Homo sapiens, UniProt Q02643); assay: cAMP accumulation; assay type: cell-based; details: Table S2; operational model; τ corrected by cell surface expression; relative to WT GHRHR; mean ± SEM
T1 construct: expressed in transfected cells; host or cells: HEK293T
Experimental: Concentration-response curves were evaluated with a three-parameter logistic equation.

22Rv1 cells = assay: cAMP accumulation in prostate cancer cells; assay type: cell-based, human; details: concentration-response, Fig. 1E; 22Rv1 express high levels of SV1
Experimental: (§6) Spodoptera frugiperda (Sf9) insect cells (Expression Systems) were grown in ESF 921 serum-free medium (Expression Systems) at 27 °C and 120 rpm. HEK293T cells were purchased from American Type Culture Collection (ATCC), cultured in Dulbecco’s modified Eagle’s medium (DMEM; Life Technologies), supplemented with 10% fetal bovine serum (FBS; Gibco), and maintained in a humidified chamber with 5% CO2 at 37 °C. The PC3 prostate cancer cell line (ATCC) was cultured in F12 medium supplemented with 10% FBS and maintained in a humidified chamber with 5% CO2 at 37 °C. 22Rv1 and LNCaP human prostate cancer cells (ATCC) were cultured in Roswell Park Memorial Institute (RPMI)-1640 medium supplemented with 10% FBS and maintained in a humidified atmosphere containing 5% CO2 at 37 °C.
as §1

LNCaP cells = assay: cAMP accumulation in prostate cancer cells; assay type: cell-based, human; details: concentration-response, Fig. 1E; LNCaP express high levels of GHRHR
Experimental: as §6, §1

PC3 cells = assay: cAMP accumulation in prostate cancer cells; assay type: cell-based, human; details: concentration-response, Fig. 1E; PC3 low expression of both
Experimental: as §6, §1

[1] = test system: GHRHR ECD mutants (L34, L62, F82, F85 to alanine); assay: β-arrestin 1/2 recruitment (BRET), GHRHR ECD alanine mutants; assay type: cell-based, human; details: HEK293T
Experimental: HEK293T cells were seeded at a density of 30,000 cells per well into 96-well culture plates pretreated with poly-D-lysine hydrobromide. After incubation for 24 h to reach 70% to 80% confluence, the cells were transiently transfected with HA-Flag-GHRHR-Rluc8 or HA-Flag-SV1-Rluc8 and β-arrestin 1/2-Venus at a 1:9 mass ratio using lipofectamine 3000 reagent (Invitrogen) and cultured for another 24 h. Thereafter, cells were washed once and incubated for 30 min at 37 °C with HBSS buffer (pH 7.4) supplemented with 0.1% BSA and 10 mM HEPES. Five micromolars of coelenterazine h (YEASEN Biotechnology) was then added and incubated for 5 min in the dark. The bioluminescence resonance energy transfer (BRET) signals were detected with an Envision plate reader by calculating the ratio of emission at 535 nm over emission at 470 nm.

[2] = HEK293T, LANCE Ultra cAMP, 30 min RT, 0.5 mM IBMX, n = 4 in quadruplicate
[3] = HEK293T, n = 4 in quadruplicate
[4] = operational model, τ corrected by cell surface expression, n = 4

T1 sequence (Q02643 33-423 limits assumed, stated change not applied): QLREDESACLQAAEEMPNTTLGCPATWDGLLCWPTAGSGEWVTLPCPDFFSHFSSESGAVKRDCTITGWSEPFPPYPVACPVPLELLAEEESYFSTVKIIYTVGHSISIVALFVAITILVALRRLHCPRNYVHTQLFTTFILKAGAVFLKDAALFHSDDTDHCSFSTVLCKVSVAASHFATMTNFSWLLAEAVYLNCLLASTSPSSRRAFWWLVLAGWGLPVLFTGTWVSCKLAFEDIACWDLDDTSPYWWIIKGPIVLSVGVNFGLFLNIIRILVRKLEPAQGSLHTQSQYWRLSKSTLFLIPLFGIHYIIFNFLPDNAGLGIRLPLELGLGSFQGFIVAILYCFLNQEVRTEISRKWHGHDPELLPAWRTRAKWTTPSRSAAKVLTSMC

For `CC[C@H](C)[C@H](NC(=O)[C@H](C)NC(=O)[C@H](CC(=O)O)NC(=O)[C@H](C)NC(=O)[C@@H](N)Cc1ccc(O)cc1)C(=O)N[C@@H](Cc1ccccc1)C(=O)N[C@H](C(=O)N[C@@H](CC(N)=O)C(=O)N[C@@H](CO)C(=O)N[C@@H](Cc1ccc(O)cc1)C(=O)N[C@@H](CCCNC(=N)N)C(=O)N[C@@H](CCCCN)C(=O)N[C@H](C(=O)N[C@@H](CC(C)C)C(=O)NCC(=O)N[C@@H](CCC(N)=O)C(=O)N[C@@H](CC(C)C)C(=O)N[C@@H](CO)C(=O)N[C@@H](C)C(=O)N[C@@H](CCCNC(=N)N)C(=O)N[C@@H](CCCCN)C(=O)N[C@@H](CC(C)C)C(=O)N[C@@H](CC(C)C)C(=O)N[C@@H](CCC(N)=O)C(=O)N[C@@H](CC(=O)O)C(=O)N[C@H](C(=O)N[C@@H](CCSC)C(=O)N[C@@H](CO)C(=O)N[C@@H](CCCNC(=N)N)C(=O)N[C@@H](CCC(N)=O)C(=O)N[C@@H](CCC(N)=O)C(=O)NCC(=O)N[C@@H](CCC(=O)O)C(=O)N[C@@H](CO)C(=O)N[C@@H](CC(N)=O)C(=O)N[C@@H](CCC(N)=O)C(=O)N[C@@H](CCC(=O)O)C(=O)N[C@@H](CCCNC(=N)N)C(=O)NCC(=O)N[C@@H](C)C(=O)N[C@@H](CCCNC(=N)N)C(=O)N[C@@H](C)C(=O)N[C@@H](CCCNC(=N)N)C(=O)N[C@@H](CC(C)C)C(N)=O)[C@@H](C)CC)C(C)C)[C@@H](C)O` [GHRH, growth hormone–releasing hormone], the “pEC50 of cAMP accumulation” value (SV1 V65A; [2]) was 5.33 ± 0.09, the “Emax of cAMP accumulation” value (SV1 V65A; [3]) was 106.08 ± 4.91 % WT GHRHR and the “ΔLog (τ/KA)” value (SV1 V65A; [4]) was -4.08 ± 0.12. For the same compound, the “pEC50 of cAMP accumulation” value (SV1 Y69A; [2]) was 5.44 ± 0.09, the “Emax of cAMP accumulation” value (SV1 Y69A; [3]) was 104.75 ± 4.29 % WT GHRHR and the “ΔLog (τ/KA)” value (SV1 Y69A; [4]) was -3.81 ± 0.10. For the same compound, the “pEC50 of cAMP accumulation” value (SV1 L294A; [2]) was 5.32 ± 0.10, the “Emax of cAMP accumulation” value (SV1 L294A; [3]) was 106.26 ± 5.25 % WT GHRHR and the “ΔLog (τ/KA)” value (SV1 L294A; [4]) was -4.96 ± 0.12. For the same compound, the “pEC50 of cAMP accumulation” value (SV1 I225A; [2]) was 4.98 ± 0.12, the “Emax of cAMP accumulation” value (SV1 I225A; [3]) was 76.03 ± 5.48 % WT GHRHR and the “ΔLog (τ/KA)” value (SV1 I225A; [4]) was -3.85 ± 0.13. For the same compound, the “pEC50 of cAMP accumulation” value (SV1 F62A; [2]) was 5.28 ± 0.08, the “Emax of cAMP accumulation” value (SV1 F62A; [3]) was 105.64 ± 4.54 % WT GHRHR and the “ΔLog (τ/KA)” value (SV1 F62A; [4]) was -4.41 ± 0.14. The “pEC50 of cAMP accumulation” value (SV1 S145A; [2]) was 6.34 ± 0.09, the “Emax of cAMP accumulation” value (SV1 S145A; [3]) was 101.87 ± 3.50 % WT GHRHR and the “ΔLog (τ/KA)” value (SV1 S145A; [4]) was -4.22 ± 0.14. The “pEC50 of cAMP accumulation” value (SV1 H146A; [2]) was 5.07 ± 0.08, the “Emax of cAMP accumulation” value (SV1 H146A; [3]) was 101.06 ± 4.83 % WT GHRHR and the “ΔLog (τ/KA)” value (SV1 H146A; [4]) was -4.64 ± 0.11. For the same compound, the “pEC50 of cAMP accumulation” value (SV1 K118A; [2]) was 4.61 ± 0.12, the “Emax of cAMP accumulation” value (SV1 K118A; [3]) was 92.40 ± 7.25 % WT GHRHR and the “ΔLog (τ/KA)” value (SV1 K118A; [4]) was -4.51 ± 0.13. For the same compound, the “pEC50 of cAMP accumulation” value (SV1 K66A; [2]) was 5.60 ± 0.08, the “Emax of cAMP accumulation” value (SV1 K66A; [3]) was 106.82 ± 4.09 % WT GHRHR and the “ΔLog (τ/KA)” value (SV1 K66A; [4]) was -4.02 ± 0.11. The “ΔLog (τ/KA)” value (GHRHR Δ32) was -3.23 ± 0.04, the cAMP response (22Rv1 cells) was “either markedly reduced or marginal cAMP responses” and the cAMP response (LNCaP cells) was “strongest cAMP response”. The cAMP response (PC3 cells) was “either markedly reduced or marginal cAMP responses”, the “β-arrestin 1/2 recruitments” value ([1]; F82A and F85A mutants of GHRHR) was “enhanced β-arrestin 1/2 recruitments” and the “β-arrestin 1/2 recruitments” value ([1]; any or all of four ECD residues (L34, L62, F82, F85) to alanine) was “enhanced β-arrestin 1/2 recruitments”.
